Blank lines part the entries; values can stand above or below the molecule they belong to.
Columns and labels:
[1] = Oral bioavailability in Sprague-Dawley rat at 5 mg/kg; type: ADME, organism-based; conditions: in vivo
[2] = Metabolic stability in dog liver S9 fraction assessed as compound remaining after 2 hrs; type: ADME, subcellular, Canis lupus familiaris; conditions: read-out: Stability
[3] = Metabolic stability in human liver S9 fraction assessed as compound remaining after 2 hrs; type: ADME, subcellular; conditions: read-out: Stability
[4] = Metabolic stability in monkey liver S9 fraction assessed as compound remaining after 2 hrs; type: ADME, subcellular, Macaca mulatta; conditions: rhesus monkey, read-out: Stability
[5] = Metabolic stability in rat liver S9 fraction assessed as compound remaining after 2 hrs; type: ADME, subcellular; conditions: read-out: Stability
[6] = Metabolic stability in mouse liver S9 fraction assessed as compound remaining after 2 hrs; type: ADME, subcellular; conditions: read-out: Stability
[7] = target: Vascular endothelial growth factor receptor 2 (Homo sapiens, UniProt P35968)
Sequence of Vascular endothelial growth factor receptor 2 (P35968 whole entry): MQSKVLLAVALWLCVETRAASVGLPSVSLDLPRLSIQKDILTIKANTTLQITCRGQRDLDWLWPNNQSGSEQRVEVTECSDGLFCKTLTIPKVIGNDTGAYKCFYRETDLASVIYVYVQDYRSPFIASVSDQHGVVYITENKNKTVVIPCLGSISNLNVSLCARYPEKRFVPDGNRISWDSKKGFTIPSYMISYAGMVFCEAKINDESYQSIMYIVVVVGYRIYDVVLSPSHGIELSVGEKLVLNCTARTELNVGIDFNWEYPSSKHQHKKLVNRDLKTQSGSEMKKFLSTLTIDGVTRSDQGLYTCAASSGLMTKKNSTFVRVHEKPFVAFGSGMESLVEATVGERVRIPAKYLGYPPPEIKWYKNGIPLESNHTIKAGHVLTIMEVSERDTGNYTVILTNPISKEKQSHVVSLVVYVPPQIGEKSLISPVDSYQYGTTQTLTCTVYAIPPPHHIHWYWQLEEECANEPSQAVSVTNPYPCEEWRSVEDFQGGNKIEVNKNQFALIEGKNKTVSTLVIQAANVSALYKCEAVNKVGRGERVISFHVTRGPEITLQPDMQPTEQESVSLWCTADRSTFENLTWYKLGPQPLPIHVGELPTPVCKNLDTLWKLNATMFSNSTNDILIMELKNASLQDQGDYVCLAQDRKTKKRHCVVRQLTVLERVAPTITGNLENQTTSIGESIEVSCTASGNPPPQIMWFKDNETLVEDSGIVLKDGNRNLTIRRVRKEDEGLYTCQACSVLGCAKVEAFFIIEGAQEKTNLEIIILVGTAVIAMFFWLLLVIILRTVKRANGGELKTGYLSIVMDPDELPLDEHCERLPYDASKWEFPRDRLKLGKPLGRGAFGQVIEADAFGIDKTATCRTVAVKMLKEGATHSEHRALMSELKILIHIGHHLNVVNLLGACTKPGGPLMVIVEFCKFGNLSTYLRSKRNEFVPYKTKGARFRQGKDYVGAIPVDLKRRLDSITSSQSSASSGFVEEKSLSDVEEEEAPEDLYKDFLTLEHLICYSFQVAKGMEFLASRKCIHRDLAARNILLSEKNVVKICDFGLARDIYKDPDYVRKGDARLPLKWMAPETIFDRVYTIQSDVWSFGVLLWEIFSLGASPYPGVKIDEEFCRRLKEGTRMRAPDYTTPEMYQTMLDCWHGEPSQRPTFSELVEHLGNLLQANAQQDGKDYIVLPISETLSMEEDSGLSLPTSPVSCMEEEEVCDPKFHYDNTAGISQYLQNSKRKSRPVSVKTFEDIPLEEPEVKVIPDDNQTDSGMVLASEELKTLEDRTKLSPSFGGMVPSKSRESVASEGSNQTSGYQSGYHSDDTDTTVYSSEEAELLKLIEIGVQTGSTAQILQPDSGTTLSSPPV
Description: Inhibition of human recombinant VEGF-R2 expressed in baculovirus expression system using GST-PLCgamma as substrate after 1 hr by time-resolved fluorescence analysis

Angiopoietin-1 receptor = Angiopoietin-1 receptor (Homo sapiens, UniProt Q02763)
Sequence of Angiopoietin-1 receptor (Q02763 whole entry): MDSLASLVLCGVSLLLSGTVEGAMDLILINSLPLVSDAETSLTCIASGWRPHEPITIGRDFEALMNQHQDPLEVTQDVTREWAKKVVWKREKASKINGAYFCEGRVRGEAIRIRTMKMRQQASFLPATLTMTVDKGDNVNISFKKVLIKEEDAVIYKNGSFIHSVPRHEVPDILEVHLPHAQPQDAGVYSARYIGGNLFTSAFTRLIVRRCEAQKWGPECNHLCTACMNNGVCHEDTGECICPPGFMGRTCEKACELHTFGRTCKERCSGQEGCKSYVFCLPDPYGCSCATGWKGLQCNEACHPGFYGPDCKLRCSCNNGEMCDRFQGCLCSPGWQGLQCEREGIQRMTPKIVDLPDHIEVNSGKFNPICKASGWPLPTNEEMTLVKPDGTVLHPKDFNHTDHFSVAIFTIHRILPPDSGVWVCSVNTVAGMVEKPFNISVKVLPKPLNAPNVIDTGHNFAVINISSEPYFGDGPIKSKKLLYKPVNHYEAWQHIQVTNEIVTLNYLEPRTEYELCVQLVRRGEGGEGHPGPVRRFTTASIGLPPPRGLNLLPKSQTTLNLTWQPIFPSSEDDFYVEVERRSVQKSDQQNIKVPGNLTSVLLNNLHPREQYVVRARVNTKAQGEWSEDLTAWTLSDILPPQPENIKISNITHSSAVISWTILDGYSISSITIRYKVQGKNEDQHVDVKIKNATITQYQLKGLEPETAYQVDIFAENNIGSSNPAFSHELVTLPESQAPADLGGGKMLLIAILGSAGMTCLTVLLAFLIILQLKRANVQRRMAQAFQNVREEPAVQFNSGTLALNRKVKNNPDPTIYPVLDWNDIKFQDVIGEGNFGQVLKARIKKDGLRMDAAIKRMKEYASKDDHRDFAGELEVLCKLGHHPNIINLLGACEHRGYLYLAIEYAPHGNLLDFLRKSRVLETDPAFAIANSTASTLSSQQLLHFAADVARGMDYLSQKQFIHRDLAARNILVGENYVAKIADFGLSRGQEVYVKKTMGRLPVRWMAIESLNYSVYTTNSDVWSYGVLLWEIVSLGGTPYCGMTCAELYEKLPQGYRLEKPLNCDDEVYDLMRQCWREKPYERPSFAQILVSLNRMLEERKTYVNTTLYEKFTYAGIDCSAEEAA
Description: Inhibition of human recombinant Tie2 expressed in baculovirus expression system using GST-PLCgamma as substrate after 1 hr by time-resolved fluorescence analysis

bioavailability [1]: 22%
remaining at 2 h [2]: 65%
remaining at 2 h [3]: 54%
remaining at 2 h [4]: 44%
remaining at 2 h [5]: 65%
remaining at 2 h [6]: 65%
SMILES: CCCn1c2ccc(Nc3ncccn3)cc2c2c3c(c4c(c21)CCc1nn(C)cc1-4)C(=O)NC3

IC50 [7]: > 3 µM
IC50 (Angiopoietin-1 receptor): > 3 µM
SMILES: Cc1cc(C)nc(Nc2ccc3c(c2)c2c4c(c5c(c2n3CC(C)C)CCc2nn(C)cc2-5)C(=O)NC4)n1

IC50 (Angiopoietin-1 receptor): > 1 µM
SMILES: COc1ccnc(Nc2ccc3c(c2)c2c4c(c5c(c2n3CC(C)C)CCc2nn(C)cc2-5)C(=O)NC4)n1

IC50 (Angiopoietin-1 receptor): > 3 µM
SMILES: CC(C)Cn1c2ccc(Nc3nccc(C(F)(F)F)n3)cc2c2c3c(c4c(c21)CCc1nn(C)cc1-4)C(=O)NC3

IC50 (Angiopoietin-1 receptor): > 3 µM
SMILES: CC(C)n1c2ccc(Nc3ccncc3)cc2c2c3c(c4c(c21)CCc1nn(C)cc1-4)C(=O)NC3

IC50 (Angiopoietin-1 receptor): > 10 µM
SMILES: CC(C)OCc1ccc2c(c1)c1c3c(c4c(c1n2CCCO)Cc1ccccc1-4)C(=O)NC3 [CEP-5214]
